Assay results reported in publication PMC11817140, “Characterization of Novel Plantaricin-Derived Antiviral Peptides Against Flaviviruses” (International Journal of Molecular Sciences, 2025).
Where “and” joins values, the source holds several entries; their conditions need not be identical. Equal values may be shown once.

System: West Nile virus Kunjin strain (KUNV)
Assay: Plaque reduction assay in Vero cells after pre-incubating virus with peptide
Assay type: cell-based
Conditions: 10 µM peptide, KUNV 1 × 10^5 PFU exposed in DMEM for 1 h at room temperature, then Vero cells 1 h, overlay, 3 days, mean with SD of three independent experiments
Experimental: The antiviral activity of the synthesized peptides was evaluated using plaque reduction assays in Vero cells against West Nile virus Kunjin strain (KUNV, accession number AY274504). Vero cells (Vero E6, ATCC, CRL-1586, Manassas, VA, USA) were maintained in Dulbecco’s Modified Eagle Medium (DMEM, Thermo Fisher Scientific, Gibco, Göteborg, Sweden), supplemented with 10% fetal bovine serum (FBS, Thermo Fisher Scientific, Gibco, Göteborg, Sweden) and antibiotics (PEST, Thermo Fisher Scientific, Gibco, Göteborg, Sweden). For the antiviral assays, Vero cells were seeded in 24-well plates and allowed to reach confluency. The virus suspension (1 × 10^5 PFU) was pre-incubated with the peptides at 10 µM concentration or lower (in the combination experiment) for 1 h at room temperature. The peptide–virus mixtures were then added to the Vero cell monolayers and incubated for 1 h at 37 °C. Following incubation, the inoculum was removed, and cells were overlaid with Avicel 2.4% overlay media (FMC, Philadelphia, PA, USA). Plates were incubated for 3 days at 37 °C in a CO2 incubator. Post-incubation, cells were fixed with 100% methanol and stained with 1% crystal violet to visualize and count viral plaques. The reduction in plaque numbers compared to control wells (virus without peptide) was used to quantify antiviral activity.

| Substance | KUNV (% Reduction) | KUNV (% Reduction) (listed as PLNC8 β1-20) | KUNV (% Reduction) (listed as PLNC8 α1-15) |
| --- | --- | --- | --- |
| α1-8: truncated peptide derived from PLNC8 α (DLTTKLWS) | 20 ± 18% |  |  |
| α16-22: truncated peptide derived from PLNC8 α (KKARWNL) | 3 ± 6% |  |  |
| SVPTSVYLLGIKILWSARKFGKVIEKSFNKGFYH [β17, modified peptide derived from PLNC8 β] | 14 ± 12% |  |  |
| SVPTSVYTLGIKILWSAYKHRKTIEKSFNKGFYH [PLNC8 β, full-length β peptide (34 residues) of two-peptide bacteriocin plantaricin NC8 αβ, reference compound] | 70 ± 12% |  |  |
| SVPTSVYTLGQKILRSARKFGKDIEKSFNKGFYH [β14, modified peptide derived from PLNC8 β] | 6 ± 8% |  |  |
| β7-20: truncated peptide derived from PLNC8 β (YTLGIKILWSAYKH) | 65 ± 20% |  |  |
| SVPTSVYTLGIKILWSARKFGKVIEKSFNKGFYH [β16, modified peptide derived from PLNC8 β] | 84 ± 8% |  |  |
| AYSLQMGATAIKQVKKLFKKWGW [PlnA, full-length plantaricin A, peptide pheromone of Lactobacillus plantarum C11, reference compound] | 27 ± 9% |  |  |
| β28-34: truncated peptide derived from PLNC8 β (FNKGFYH) | 11 ± 15% |  |  |
| β1-6: truncated peptide derived from PLNC8 β (SVPTSV) | 21 ± 22% |  |  |
| β7-13: truncated peptide derived from PLNC8 β (YTLGIKI) | 8 ± 4% |  |  |
| α9-22: truncated peptide derived from PLNC8 α (SWGYYLGKKARWNL) | 7 ± 7% |  |  |
| β1-20: truncated peptide derived from PLNC8 β (SVPTSVYTLGIKILWSAYKH) | 92 ± 4% | over 90% |  |
| β10-17: truncated peptide derived from PLNC8 β (GIKILWSA) | 0 ± 0% |  |  |
| GAWKNFWSSLRKGFYDGEAGRAIRR [PlnJ, full-length peptide J of two-peptide plantaricin JK, reference compound] | 30 ± 8% |  |  |
| SVPTSVYLLGIKILWKARKFGKVIEKSFNKGFYH [β18, modified peptide derived from PLNC8 β] | 12 ± 1% |  |  |
| β7-34: truncated peptide derived from PLNC8 β (YTLGIKILWSAYKHRKTIEKSFNKGFYH) | 52 ± 27% |  |  |

| Substance | KUNV (% Reduction) | KUNV (% Reduction) (listed as PLNC8 β1-20) | KUNV (% Reduction) (listed as PLNC8 α1-15) |
| --- | --- | --- | --- |
| VFHAYSARGVRNNYKSAVGPADWVISAVRGFIHG [PlnF, full-length peptide F of two-peptide plantaricin EF, reference compound] | 24 ± 6% |  |  |
| α1-15: truncated peptide derived from PLNC8 α (DLTTKLWSSWGYYLG) | 91 ± 2% |  | over 90% |
| SVPTSVYTLGIKILRSARKFGKVIEKSFNKGFYH [β15, modified peptide derived from PLNC8 β] | 9 ± 13% |  |  |
| β1-13: truncated peptide derived from PLNC8 β (SVPTSVYTLGIKI) | 5 ± 7% |  |  |
| α1-22: truncated peptide derived from PLNC8 α (DLTTKLWSSWGYYLGKKARWNL) | 28 ± 2% |  |  |
| β14-34: truncated peptide derived from PLNC8 β (LWSAYKHRKTIEKSFNKGFYH) | 5 ± 0.2% |  |  |
| α16-29: truncated peptide derived from PLNC8 α (KKARWNLKHPYVQF) | 2 ± 0% |  |  |
| β4-17: truncated peptide derived from PLNC8 β (TSVYTLGIKILWSA) | 56 ± 32% |  |  |
| α23-29: truncated peptide derived from PLNC8 α (KHPYVQF) | 10 ± 4% |  |  |
| α9-29: truncated peptide derived from PLNC8 α (SWGYYLGKKARWNLKHPYVQF) | 10 ± 6% |  |  |
| α9-15: truncated peptide derived from PLNC8 α (SWGYYLG) | 16 ± 7% |  |  |
| β14-20: truncated peptide derived from PLNC8 β (LWSAYKH) | 3 ± 4% |  |  |
| RRSRKNGIGYAIGYAFGAVERAVLGGSRDYNK [PlnK, full-length peptide K of two-peptide plantaricin JK, reference compound] | 18 ± 9% |  |  |
| DLTTKLWSSWGYYLGKKARWNLKHPYVQF [PLNC8 α, full-length α peptide (29 amino acids) of two-peptide bacteriocin plantaricin NC8 αβ, reference compound] | ~ 35% and 35 ± 2% |  |  |
| FNRGGYNFGKSVRHVVDAIGSVAGIRGILKSIR [PlnE, full-length peptide E of two-peptide plantaricin EF, reference compound] | 24 ± 6% |  |  |
| SVPTSVYTLGQKILRSARKFGKTIEKSFNKGFYH [β13, modified peptide derived from PLNC8 β] | 8 ± 11% |  |  |
| β21-34: truncated peptide derived from PLNC8 β (RKTIEKSFNKGFYH) | 0 ± 0% |  |  |
